According to ChEMBL document CHEMBL1201862, “PubChem BioAssay data set” (2004):
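Following 48 hours of exposure in 96-well plates, responses at five concentrations were used to interpolate endpoints linearly. GI50 is the concentration that inhibits growth by half.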 Activity calls are given as the source filed them. Cut-off read from the data, not from the text of the source: active = GI50 up to about 1.1 µM and inactive = higher.

Key:
Experiment in all cases: DTP human tumour cell line panel, 48 h
[1] = tested on: MOLT-4
[2] = tested on: LXFL 529
[3] = tested on: EKVX
[4] = tested on: HOP-92
[5] = tested on: NCI-H226
[6] = tested on: HOP-62
[7] = tested on: K562
[8] = tested on: OVCAR-5
[9] = tested on: A549
[10] = tested on: CCRF-CEM
[11] = tested on: SF-268
[12] = tested on: OVCAR-3
[13] = tested on: SK-MEL-28
[14] = tested on: DMS-273
[15] = tested on: TK-10
[16] = tested on: A498
[17] = tested on: M19-MEL
[18] = tested on: SK-MEL-2
[19] = tested on: HL-60
[20] = tested on: KM-20L2
[21] = tested on: SW-620
[22] = tested on: HOP-18
[23] = tested on: RXF 393
[24] = tested on: U-251
[25] = tested on: 786-0
[26] = tested on: OVCAR-4
[27] = tested on: NCI-H460
[28] = tested on: OVCAR-8
[29] = tested on: M14
[30] = tested on: UACC-62
[31] = tested on: LOX IMVI
[32] = tested on: NCI-H23
[33] = tested on: COLO 205
[34] = tested on: RXF 631
[35] = tested on: DMS-114
[36] = tested on: SF-539
[37] = tested on: CAKI-1
[38] = tested on: SK-MEL-5
[39] = tested on: SN12C
[40] = tested on: KM12
[41] = tested on: HCT-15
[42] = tested on: XF498
[43] = tested on: HT-29
[44] = tested on: SNB-19
[45] = tested on: HCC 2998
[46] = tested on: ACHN
[47] = tested on: DLD-1
[48] = tested on: SK-OV-3
[49] = tested on: SNB-75
[50] = tested on: Malme-3M
[51] = tested on: IGROV-1
[52] = tested on: SF-295
[53] = tested on: RPMI-8226
[54] = tested on: HCT-116
[55] = tested on: NCI-H522
[56] = tested on: SR
[57] = tested on: UACC-257
[58] = tested on: UO-31

In the case of `O=C(O)CCNCCCNCCC(=O)O`, the GI50 [1] is reported as > 100 µM (inactive), the GI50 [2] is reported as > 100 µM (inactive) and the GI50 [3] is reported as > 100 µM (inactive). The GI50 [4] was > 100 µM (inactive), the GI50 [5] was > 100 µM (inactive) and the GI50 [6] was > 100 µM (inactive). For the same molecule, the GI50 [7] was > 100 µM (inactive), the GI50 [8] was > 100 µM (inactive) and the GI50 [9] was > 100 µM (inactive). The GI50 [10] was > 100 µM (inactive), the GI50 [11] was > 100 µM (inactive) and the GI50 [12] was > 100 µM (inactive). For the same molecule, the GI50 [13] was > 100 µM (inactive), the GI50 [14] was > 100 µM (inactive) and the GI50 [15] was > 100 µM (inactive). For the same molecule, the GI50 [16] was > 100 µM (inactive), the GI50 [17] was > 100 µM (inactive) and the GI50 [18] was > 100 µM (inactive). For the same molecule, the GI50 [19] was > 100 µM (inactive), the GI50 [20] was > 100 µM (inactive) and the GI50 [21] was > 100 µM (inactive). The GI50 [22] was > 100 µM (inactive), the GI50 [23] was > 100 µM (inactive) and the GI50 [24] was > 100 µM (inactive). For the same molecule, the GI50 [25] was > 100 µM (inactive), the GI50 [26] was > 100 µM (inactive) and the GI50 [27] was > 100 µM (inactive). For the same molecule, the GI50 [28] was > 100 µM (inactive), the GI50 [29] was > 100 µM (inactive) and the GI50 [30] was > 100 µM (inactive). For the same molecule, the GI50 [31] was > 100 µM (inactive), the GI50 [32] was > 100 µM (inactive) and the GI50 [33] was > 100 µM (inactive). The GI50 [34] was > 100 µM (inactive), the GI50 [35] was > 100 µM (inactive) and the GI50 [36] was > 100 µM (inactive). For the same molecule, the GI50 [37] was > 100 µM (inactive), the GI50 [38] was > 100 µM (inactive) and the GI50 [39] was > 100 µM (inactive). The GI50 [40] was > 100 µM (inactive), the GI50 [41] was > 100 µM and the GI50 [42] was > 100 µM (inactive). For the same molecule, the GI50 [43] was > 100 µM (inactive), the GI50 [44] was > 100 µM (inactive) and the GI50 [45] was > 100 µM (inactive). For the same molecule, the GI50 [46] was > 100 µM (inactive), the GI50 [47] was > 100 µM (inactive) and the GI50 [48] was > 100 µM (inactive). The GI50 [49] was 66.8 µM (inactive), the GI50 [50] was > 100 µM (inactive) and the GI50 [51] was > 100 µM (inactive). The GI50 [52] was > 100 µM (inactive), the GI50 [53] was > 100 µM (inactive) and the GI50 [54] was > 100 µM (inactive). The GI50 [55] was > 100 µM (inactive).

With `O=c1nc(-c2ccccc2)scc1-c1ccccc1` the GI50 [1] was > 100 µM (inactive), the GI50 [56] was > 100 µM (inactive) and the GI50 [57] was > 100 µM (inactive). The GI50 [2] was > 100 µM (inactive), the GI50 [3] was > 100 µM (inactive) and the GI50 [4] was 67.9 µM (inactive). The GI50 [5] was > 100 µM (inactive), the GI50 [6] was 44.7 µM (inactive) and the GI50 [7] was > 100 µM (inactive). The GI50 [9] was > 100 µM (inactive), the GI50 [10] was > 100 µM (inactive) and the GI50 [11] was 86.3 µM (inactive). For the same molecule, the GI50 [12] was > 100 µM (inactive), the GI50 [13] was > 100 µM (inactive) and the GI50 [15] was > 100 µM (inactive). The GI50 [17] was > 100 µM (inactive), the GI50 [58] was > 100 µM (inactive) and the GI50 [18] was > 100 µM (inactive). The GI50 [19] was > 100 µM (inactive), the GI50 [20] was > 100 µM (inactive) and the GI50 [21] was > 100 µM (inactive). The GI50 [22] was > 100 µM (inactive), the GI50 [23] was 74.5 µM (inactive) and the GI50 [24] was 98.6 µM (inactive). The GI50 [25] was 78.3 µM (inactive), the GI50 [26] was > 100 µM (inactive) and the GI50 [27] was > 100 µM (inactive). The GI50 [28] was > 100 µM (inactive), the GI50 [29] was > 100 µM (inactive) and the GI50 [30] was 35.5 µM (inactive). The GI50 [32] was > 100 µM (inactive), the GI50 [33] was > 100 µM (inactive) and the GI50 [34] was > 100 µM (inactive). For the same molecule, the GI50 [35] was > 100 µM (inactive), the GI50 [36] was > 100 µM (inactive) and the GI50 [37] was > 100 µM (inactive). For the same molecule, the GI50 [38] was > 100 µM (inactive), the GI50 [39] was > 100 µM (inactive) and the GI50 [40] was > 100 µM (inactive). For the same molecule, the GI50 [41] was > 100 µM, the GI50 [42] was > 100 µM (inactive) and the GI50 [43] was > 100 µM (inactive). The GI50 [44] was 59.7 µM (inactive), the GI50 [46] was > 100 µM (inactive) and the GI50 [47] was > 100 µM (inactive). The GI50 [48] was > 100 µM (inactive), the GI50 [49] was > 100 µM (inactive) and the GI50 [50] was > 100 µM (inactive). The GI50 [51] was > 100 µM (inactive), the GI50 [52] was > 100 µM (inactive) and the GI50 [53] was > 100 µM (inactive). For the same molecule, the GI50 [54] was > 100 µM (inactive) and the GI50 [55] was 21 µM (inactive).
